# Data reported in paper PMC10813319 (Biomedicines, 2024).
# Like-named read-outs stand apart in the source and are kept apart here. Square brackets hold non-standard residues; d marks the D form. Peptide text beside a SMILES is read from it.
# What was measured:
# [1] = system: IL-6-induced cofilactin rods in Day 55 human neurons
# [2] = system: dual tropic gp120MN-induced cofilactin rods in Day 55 human neurons
# [3] = system: pre-formed Aβd/t-induced cofilactin rods in Day 55 human neurons
# [4] = system: pre-formed Aβd/t-induced cofilin-mRFP rods in E18 rat neurons
# [5] = system: Aβd/t-induced cofilactin rods in Day 55 human iPSC-derived glutamatergic neurons
# Procedure: (§1) The predominantly dimer/trimer fraction of a secreted human amyloid-β (Aβd/t) was derived from a Chinese hamster ovary-cell line (7PA2) [62]. Medium from these cells collected after overnight incubation was concentrated 10-fold on Amicon Ultra 15 mL, 3K cut-off spin filters (Sigma-Aldrich), and the concentrate fractionated on a Superdex-75 Increase (Sigma-Aldrich) gel filtration column equilibrated in 50 mM ammonium acetate buffer [20, 24]. The fractions containing Aβd/t were identified by Western blots using an Aβ antibody (6E10; 1:1000) (Covance, Princeton, NJ, USA). Fractions were freeze-dried, resolubilized in 1 mL of sterile water, and freeze-dried a second time for storage. The Aβd/t fraction was reconstituted to 1X (concentration in 7PA2 culture medium, assuming full recovery of the dimer/trimer fraction) in neuronal culture medium prior to addition to neuronal cultures. Quantification of the total Aβd/t pool was determined to be about 1 nM (monomer equivalent) by comparison on immunoblots to a standard curve using synthetic Aβ [20].
# (§2) Human neurons were derived from iPSC WTC-11 cells, in which a doxycycline-regulated promoter drives the expression of the Ngn2 transcription factor for glutamatergic neuronal differentiation [67, 68]. […] Differentiated neurons were plated at 60,000 per well and cultured for 55 days in glial-conditioned complete homemade neurobasal medium (hNB) either on poly-D-lysine/Matrigel (Corning Life Sciences, Tewksbury, MA, USA) coated glass bottom 24-well plates (Cellvis, Mountain View, CA, USA) or on similarly coated 12 mm German glass coverslips placed in plastic 24-well plates.
# (§3) Cultured neurons were exposed to inhibitors and/or Aβd/t for 20–24 h prior to fixation for 30 min with 4% formaldehyde ± 0.1% glutaraldehyde in cytoskeletal buffer [72], washed 3 times with PBS, and permeabilized with −20 °C methanol (3 min while warming to RT). Methanol permeabilization without the use of non-ionic detergents is critical for optimal observation of rods [13]. After removing the methanol, neurons were washed twice in PBS, twice in Tris Buffered Saline (TBS: 10 mM Tris, pH 7.5, 150 mM NaCl), and incubated for 1 h at RT with blocking buffer (2–5% goat or donkey serum, 1% bovine serum albumin (BSA) in TBS). Primary antibodies (rabbit 1439 anti-cofilin, mouse anti-neurofilament, and chicken anti-MAP2) were diluted in 1% BSA in TBS and incubated overnight on cells at 4 °C. After 3–5 washes with TBS, secondary fluorescent-labeled antibodies (goat anti-rabbit Alexa 488 or 647, goat anti-mouse Alexa 564, or goat anti-chicken Alexa 488 or 564) ± DAPI (1:500 of 1 mg/mL) were added for 1 h at RT in 1% BSA/TBS. After 3–5 TBS washes, coverslips were mounted onto glass slides with Prolong Diamond Antifade ± DAPI (Thermo-Fisher) and air dried overnight in the dark.
# (§4) Stitched images of fixed neurons immunolabeled for cofilin and nuclei (DAPI), as well as either NF-H or MAP2, were exported as tiff files to Metamorph (version 7.8, Molecular Devices, San Jose, CA, USA) or ImageJ (Version 1.53e; Java 1.8.0_172; ImageJ.org). In some cases, macro functions were applied to set local thresholds and shape/size segmentation for cofilin rods.
# [6] = system: glutamate-induced cofilactin rods in 6 DIV rat hippocampal neurons
# [7] = system: Aβd/t-induced cofilactin rods in 6 DIV rat hippocampal neurons
# [8] = system: Aβd/t-induced cofilactin rods in Day 55 human iPSC-derived glutamatergic neurons; assay: cells; conditions: Neuron, read-out: EC50 for inhibition of Aβd/t-induced rods, human neurons
# Procedure: as §1, §2, §3, §4
# [9] = system: pre-formed Aβd/t-induced cofilactin rods in Day 55 human neurons; conditions: AMD3100 30 nM for 24 h in the continued presence of Aβd/t; cited from earlier work
# [10] = read-out: Human Neuron EC50, inhibition of Aβd/t-induced rods, Day 55 human neurons treated 24 h with Aβd/t plus peptide, Table 1
compound,measurement,setting,value
C[C@H](O)[C@@H](N)C(=O)N[C@@H](C(=O)N[C@H](CC(N)=O)C(=O)N[C@H](Cc1ccc(O)cc1)C(=O)N[C@@H](C(=O)O)[C@H](C)O)[C@H](C)O [RAP-103],EC50,[1],~0.0001 nM
same,Inhibition of gp120MN-induced rod formation,[2],completely inhibited
same,Time to 50% rod reversal in human neurons,[3],~ 3 h
same,Adjusted time of 50% loss of rod area,[4],about 200 min
same,Extrapolated time to 50% decrease in rod size,[4],~ 3 h
same,Rate of rod reversal relative to AMD3100,[4],2 fold
same,Reversal of rods induced by and in the continued presence of Aβd/t,[4],reversed rods
C[C@H](O)[C@@H](NC(=O)[C@@H](Cc1ccc(O)cc1)NC(=O)[C@@H](CC(N)=O)NC(=O)[C@H](NC(=O)[C@H](N)CO)[C@H](C)O)C(=O)O [Peptide 3] (H-[dS][dT][dN][dY][dT]-OH),EC50,[5]; [10],~1.5 nM
C[C@H](O)[C@@H](NC(=O)[C@@H](Cc1ccc(O)cc1)NC(=O)[C@@H](CC(N)=O)NC(=O)[C@H](NC(=O)[C@H](NC(=O)[C@H](NC(=O)[C@@H](CO)NC(=O)[C@@H](C)N)[C@H](C)O)[C@H](C)O)[C@H](C)O)C(N)=O [RAP-310],Inhibition of glutamate-induced rods,[6],did not inhibit
same,"Inhibition of Aβd/t-induced rods, rat neurons",[7],fully inhibited
c1cc(CN2CCCNCCNCCCNCC2)ccc1CN1CCCNCCNCCCNCC1 [AMD3100],Reversal of rods induced by and in the continued presence of Aβd/t,"[4]; AMD3100 50 nM, RAP-103 0.1 nM, live imaging over 2.5 h, n = 3",reversed rods
same,EC50,[8],2 to 3 nM
same,Reversal of Aβd/t-induced rods in human neurons,[9],reversed
Maraviroc [reference compound],EC50,"[5]; read-out: EC50 for inhibition of Aβd/t-induced rods, human neurons, Day 55 human iPSC-derived neurons, <1 nM to 100 nM, approximate, estimated from semi-log plots (Figure S2C,D), n = 2",8 to 9 nM
CN[C@@H](C(=O)N[C@@H](C(=O)N[C@H](CC(N)=O)C(=O)N[C@H](Cc1ccc(O)cc1)C(=O)N[C@@H](C(=O)O)[C@H](C)O)[C@H](C)O)[C@H](C)O [Peptide 6],EC50,[5]; [10],> 1 nM
C[C@H](O)[C@@H](NC(=O)[C@@H](CO)NC(=O)[C@H](N)CO)C(=O)N[C@H](Cc1ccc(O)cc1)C(=O)N[C@H](CCCNC(=N)N)C(=O)O [Peptide 2] (H-[dS][dS][dT][dY][dR]-OH; N-terminus and C-terminus assumed),EC50,[5]; [10],~1 nM
